Consider three compounds from patent publication US8367680B2, “Antibacterial small molecules and methods for their synthesis” (Wisconsin Alumni Research Foundation, priority 2008, dated 2013).

For this experiment, the system named is MRSA. To be noted: Staphylococcus aureus.

In brackets after ≈: the same amount, converted by molar mass. Like-named read-outs stand apart in the source and are kept apart here.

Procedure: Macroarray compounds are dissolved in DMSO and pipetted into a 96-well multititer plate containing Luria-Bertani (LB) broth inoculated with MRSA. The final concentrations of the compounds selected, e.g., 50 μM, 25 μM, 12.5 μM, 6.3 μM, and 3.1 μM, with a final DMSO concentration of 2.5% for each compound in a given well. The plate is incubated with shaking at 37° C. for 18 h, and the absorbance is measured at 595 nm using a plate-reader. The approximate MIC can be determined by the complete absence of bacterial growth relative to our negative control (LB broth with no bacteria added).
For estimated MIC determination, DMSO was added to the dried compound residue obtained from a single spot to afford ca. 100 μL of a 2 mM stock solution. Aliquots (5 μL) of these solutions were added to a 96-well plate, followed by 195 μL of diluted S. aureus 10390 (10^6 CFUs/mL) to yield ca. 50 μM final concentrations. The plates were swirled for 1 h to ensure compound dissolution, incubated for 12 h at 37° C., and the absorbance at 595 nm was recorded using a plate reader. […] Actual MIC values were determined for lead compounds resynthesized in solution using an analogous procedure with solutions of known concentration.
An aliquot of DMSO (ca. 100 μL depending on the loading of the parent hydroxyacetophenone) was added to the dried compound residue obtained after TFA cleavage and elution from a single spot. This afforded a 2.0 mM “spot stock” solution for each spot.
For estimated MIC screens, 5.0 μL portions of the “spot stock” solutions were added to the appropriate wells in a sterile, polystyrene 96-well plate to yield ca. 50 μM solutions (dependent on the initial loading of hydroxyacetopheneone and compound purity). […] All estimated MIC assays were performed in quadruplicate. Note: the MIC value is defined as the lowest concentration where no bacterial growth occurs.
This assay procedure is based in part on the method reported by Strøm et al. (Strøm, M. B.; Haug, E. B.; Skar, M. L.; Stensen, W.; Stiberg, T.; Svendsen, J. S. J. Med. Chem. 2003, 46, 1567-1570.) A 400 μL portion of overnight S. aureus 10390 culture was diluted with 100 mL of sterile LB broth to give ca. 10^6 CFUs per mL. Aliquots (195 μL) of this solution were added to all of the wells in a sterile 96-well plate (except for the negative control wells; 195 μL of sterile LB broth were added to these wells). The plates were placed on an orbital shaker table and gently swirled for 1 h to ensure compound dissolution, and then incubated (without shaking) for 12 h at 37° C. The absorbance at 595 nm was recorded using a plate reader.

A word on the MIC: it is the smallest concentration in the dilution series that meets the test's criterion for growth inhibition. On to `NC(=O)COc1cccc(C(=O)/C=C/c2cccc(C(F)(F)F)c2)c1` [Compound B18], for which the minimal inhibitory concentration (MIC) runs as follows: (read-out: Solution MIC) 54 ± 1 µM (≈ 18.9 µg/mL); (read-out: Support MIC) 25 to 50 µM (≈ 8.73 to 17.5 µg/mL).
Turning to `CC(=O)NC[C@H]1CN(c2ccc(N3CCOCC3)c(F)c2)C(=O)O1` [linezolid], where the note is “read-out: Solution MIC”, the MIC was 5 ± 1 µM (≈ 1.69 µg/mL).
Still for that read-out and setting: under `O=C(O)c1cn(C2CC2)c2cc(N3CCNCC3)c(F)cc2c1=O` [ciprofloxacin] stands 0.6 ± 0.2 µM (≈ 0.199 µg/mL).
